Structures can show the parent of a compound that is named as a salt.

In experiment [1] the test system is TNFα levels in LPS stimulated whole blood. Put plainly: LPS Stimulated Whole Blood Measuring TNFα Levels Assay. It is filed as cell-based. The following applies: LPS 200 ng/ml, 24 hours, read-out: pIC50 (TNFα levels) (converted). The method, then:
LPS Stimulated Whole Blood Measuring TNFα Levels Assay
Activation of monocytic cells by agonists of toll-like receptors such as bacterial lipopolysaccharide (LPS) results in production of key inflammatory mediators including TNFα. Such pathways are widely considered to be central to the pathophysiology of a range of auto-immune and inflammatory disorders.
(§1) Compounds to be tested are diluted to give a range of appropriate concentrations and 1 ul of the dilution stocks is added to wells of a 96 plate. Following addition of whole blood (130 ul) the plates are incubated at 37 degrees (5% CO2) for 30 min before the addition of 10 ul of 2.8 ug/ml LPS, diluted in complete RPMI 1640 (final concentration=200 ng/ml), to give a total volume of 140 ul per well. After further incubation for 24 hours at 37 degrees, 140 ul of PBS are added to each well. The plates are sealed, shaken for 10 minutes and then centrifuged (2500 rpm×10 min). 100 ul of the supernatant are removed and TNFα levels assayed by immunoassay (typically by MesoScale Discovery technology) either immediately or following storage at −20 degrees. Dose response curves for each compound was generated from the data and an IC50 value was calculated.

The subject of experiment [2] is LPS induced IL-6 secretion from whole blood. Put plainly: Measurement of LPS Induced IL-6 Secretion from Whole Blood. In kind it is cell-based. The following applies: LPS 200 ng/ml, 24 hours, read-out: pIC50 (IL-6 levels) (converted). The method, then: Measurement of LPS Induced IL-6 Secretion from Whole Blood
Activation of monocytic cells by agonists of toll-like receptors such as bacterial lipopolysaccharide (LPS) results in production of key inflammatory mediators including IL-6. Such pathways are widely considered to be central to the pathophysiology of a range of auto-immune and inflammatory disorders.
as §1, with “concentrations of which” for “concentrations and”, “the diluted” for “the dilution”, “to” for “to wells of”, “96 well” for “96”, “and IL-6” for “and TNFα”, “degrees. Concentration” for “degrees. Dose”

Regarding `CC(=O)N1c2ccc(-c3ccc(CN4CCCCC4)cc3)cc2[C@@H](Nc2ccc(Cl)cn2)C[C@H]1C` (racemic) [Example 136, (cis)-1-Acetyl-N-(5-chloro-2-pyridinyl)-2-methyl-6-[4-(1-piperidinylmethyl)phenyl]-1,2,3,4-tetrahydro-4-quinolinamine formate salt], in experiment [1], the IC50 is not above 10 µM.

Take `CCC[C@@H]1C[C@H](Nc2ccc(C)cc2)c2cc(-c3ccc(CN4CCCCC4)cc3)ccc2N1C(C)=O` [Example 189]: the IC50 in experiment [1] was not above 10 µM.

In the case of `CC(=O)N1c2ccc(-c3ccc(CN4CCCCC4)cc3)cc2[C@@H](Nc2ccc(C(F)(F)F)cn2)C[C@H]1C` (racemic) [Example 134, (cis)-1-Acetyl-2-methyl-6-[4-(1-piperidinylmethyl)phenyl]-N-[5-(trifluoromethyl)-2-pyridinyl]-1,2,3,4-tetrahydro-4-quinolinamine formate salt], in experiment [1], the IC50 is not above 10 µM.

For `CNCCn1cc(-c2ccc3c(c2)[C@H](Nc2cnccn2)C[C@H](C)N3C(C)=O)cn1` [Example 152, (2S,4R)-1-Acetyl-2-methyl-6-{1-[2-(methylamino)ethyl]-1H-pyrazol-4-yl}-N-2-pyrazinyl-1,2,3,4-tetrahydro-4-quinolinamine hydrochloride], the IC50 in experiment [2] was not above 10 µM.

As to `CC(=O)N1c2ccc(-c3ccc(C(=O)O)cc3)cc2[C@@H](Nc2cccc(F)c2)C[C@H]1C` [Example 179], the IC50 in experiment [1] was not above 10 µM.

On to `CC(=O)N1c2ccc(-n3cnc(C)c3)cc2[C@H](Nc2ccc(C)cn2)C[C@@H]1C` [Example 190], for which, in experiment [2], the IC50 is more than 10 µM.

`CNCCn1cc(-c2ccc3c(c2)[C@H](Nc2ccc(C)cn2)C[C@H](C)N3C(C)=O)cn1` [Example 155, (2S,4R)-1-Acetyl-2-methyl-6-{1-[2-(methylamino)ethyl]-1H-pyrazol-4-yl}-N-(5-methyl-2-pyridinyl)-1,2,3,4-tetrahydro-4-quinolinamine hydrochloride]: the IC50 in experiment [2] is not above 10 µM.

Turning to `CNCc1ccc(-c2ccc3c(c2)[C@H](Nc2ccc(F)cn2)C[C@H](C)N3C(C)=O)cc1` [Example 157, (2S,4R)-1-Acetyl-N-(5-fluoro-2-pyridinyl)-2-methyl-6-{4-[(methylamino)methyl]phenyl}-1,2,3,4-tetrahydro-4-quinolinamine hydrochloride], the IC50 in experiment [1] was not above 10 µM.

Consider `CC(=O)N1c2ccc(-c3ccc(CN4CCCCC4)cc3)cc2[C@@H](Nc2ccncc2)C[C@H]1C` (racemic) [Example 138, (cis)-1-Acetyl-2-methyl-6-[4-(1-piperidinylmethyl)phenyl]-N-4-pyridinyl-1,2,3,4-tetrahydro-4-quinolinamine trifluoroacetate], for which, in experiment [1], the IC50 is not above 10 µM.

Take `CNCCn1cc(-c2ccc3c(c2)[C@H](Nc2ncccc2C)C[C@H](C)N3C(C)=O)cn1` [Example 148, (2S,4R)-1-Acetyl-2-methyl-6-{1-[2-(methylamino)ethyl]-1H-pyrazol-4-yl}-N-(3-methyl-2-pyridinyl)-1,2,3,4-tetrahydro-4-quinolinamine hydrochloride]: the IC50 in experiment [2] is not above 10 µM.

For `CC(=O)N1c2ccc(-c3ccc(N)nc3)cc2[C@@H](Nc2ccccc2)C[C@H]1C` (racemic) [Example 132, (cis)-1-Acetyl-6-(6-amino-3-pyridinyl)-2-methyl-N-phenyl-1,2,3,4-tetrahydro-4-quinolinamine hydrochloride], the IC50 in experiment [1] was not above 10 µM.

As to `CNCCn1cc(-c2ccc3c(c2)[C@H](Nc2cc(F)ccn2)C[C@H](C)N3C(C)=O)cn1` [Example 156, (2S,4R)-1-Acetyl-N-(4-fluoro-2-pyridinyl)-2-methyl-6-{1-[2-(methylamino)ethyl]-1H-pyrazol-4-yl}-1,2,3,4-tetrahydro-4-quinolinamine hydrochloride], in experiment [2], the IC50 is not above 10 µM.

With `CNCCn1cc(-c2ccc3c(c2)[C@H](Nc2ncccn2)C[C@H](C)N3C(C)=O)cn1` [Example 153, (2S,4R)-1-Acetyl-2-methyl-6-{1-[2-(methylamino)ethyl]-1H-pyrazol-4-yl}-N-2-pyrimidinyl-1,2,3,4-tetrahydro-4-quinolinamine hydrochloride], the IC50 in experiment [2] is not above 10 µM.

In the case of `CNCCn1cc(-c2ccc3c(c2)[C@H](Nc2ncccc2F)C[C@H](C)N3C(C)=O)cn1` [Example 150, (2S,4R)-1-Acetyl-N-(3-fluoro-2-pyridinyl)-2-methyl-6-{1-[2-(methylamino)ethyl]-1H-pyrazol-4-yl}-1,2,3,4-tetrahydro-4-quinolinamine hydrochloride], the IC50 in experiment [2] was not above 10 µM.

Consider `CNCCn1cc(-c2ccc3c(c2)[C@H](Nc2ccc(F)cn2)C[C@H](C)N3C(C)=O)cn1` [Example 154, (2S,4R)-1-Acetyl-N-(5-fluoro-2-pyridinyl)-2-methyl-6-{1-[2-(methylamino)ethyl]-1H-pyrazol-4-yl}-1,2,3,4-tetrahydro-4-quinolinamine hydrochloride], for which the IC50 in experiment [2] was not above 10 µM.

As to `CC[C@@H]1C[C@H](Nc2ccccc2)c2cc(-c3ccc(CN4CCCCC4)cc3)ccc2N1C(C)=O` (relative stereo) [Example 163, (cis)-1-Acetyl-2-ethyl-N-phenyl-6-[4-(1-piperidinylmethyl)phenyl]-1,2,3,4-tetrahydro-4-quinolinamine formate salt], in experiment [1], the IC50 was not above 10 µM.

With `CNCCn1cc(-c2ccc3c(c2)[C@H](Nc2ccncc2)C[C@H](C)N3C(C)=O)cn1` [Example 130, (2S,4R)-1-Acetyl-2-methyl-6-{1-[2-(methylamino)ethyl]-1H-pyrazol-4-yl}-N-4-pyridinyl-1,2,3,4-tetrahydro-4-quinolinamine formate salt], in experiment [2], the IC50 was more than 10 µM.

As for `CC(=O)N1c2ccc(-n3cnc(C)c3)cc2[C@@H](Nc2ccc(C#N)cn2)C[C@H]1C` (racemic) [Example 159, 6-{[(cis)-1-acetyl-2-methyl-6-(4-methyl-1H-imidazol-1-yl)-1,2,3,4-tetrahydro-4-quinolinyl]amino}-3-pyridinecarbonitrile], in experiment [2], the IC50 was not above 10 µM.

`CNCCn1cc(-c2ccc3c(c2)[C@H](Nc2cc(C)ccn2)C[C@H](C)N3C(C)=O)cn1` [Example 149, (2S,4R)-1-Acetyl-2-methyl-6-{1-[2-(methylamino)ethyl]-1H-pyrazol-4-yl}-N-(4-methyl-2-pyridinyl)-1,2,3,4-tetrahydro-4-quinolinamine hydrochloride]: the IC50 in experiment [2] is not above 10 µM.

Regarding `CNCCn1cc(-c2ccc3c(c2)[C@H](Nc2cccc(C)n2)C[C@H](C)N3C(C)=O)cn1` [Example 147, (2S,4R)-1-Acetyl-2-methyl-6-{1-[2-(methylamino)ethyl]-1H-pyrazol-4-yl}-N-(6-methyl-2-pyridinyl)-1,2,3,4-tetrahydro-4-quinolinamine hydrochloride], the IC50 in experiment [2] was not above 10 µM.

As for `CNCCn1cc(-c2ccc3c(c2)[C@H](Nc2cccc(F)n2)C[C@H](C)N3C(C)=O)cn1` [Example 151, (2S,4R)-1-Acetyl-N-(6-fluoro-2-pyridinyl)-2-methyl-6-{1-[2-(methylamino)ethyl]-1H-pyrazol-4-yl}-1,2,3,4-tetrahydro-4-quinolinamine hydrochloride], the IC50 in experiment [2] was not above 10 µM.

For `CC(=O)N1c2ccc(-n3cnc(C)c3)cc2[C@@H](Nc2ccc(C(=O)O)cn2)C[C@H]1C` (racemic) [Example 143, 6-{[(cis)-1-acetyl-2-methyl-6-(4-methyl-1H-imidazol-1-yl)-1,2,3,4-tetrahydro-4-quinolinyl]amino}-3-pyridinecarboxylic acid], the IC50 in experiment [2] was more than 10 µM.

On to `CC(=O)N1c2ccc(-c3ccc(C(=O)O)cc3)cc2[C@H](Nc2ccc(C)cn2)C[C@@H]1C` [Example 126, 4-{(2S,4R)-1-Acetyl-2-methyl-4-[(5-methyl-2-pyridinyl)amino]-1,2,3,4-tetrahydro-6-quinolinyl}benzoic acid], for which, in experiment [2], the IC50 is more than 10 µM.

Consider `CC(=O)N1c2ccc(-c3ccc(C(=O)O)cc3)cc2[C@@H](Nc2ccccc2)C[C@H]1C` (stereo in doubt) [Example 91, 4-[1-Acetyl-2-methyl-4-(phenylamino)-1,2,3,4-tetrahydro-6-quinolinyl]benzoic acid], for which, in experiment [1], the IC50 was not above 10 µM.

For `CC(=O)N1c2ccc(-c3ccc(CN4CCCCC4)cc3)cc2[C@@H](Nc2ccccn2)C[C@H]1C` (racemic) [Example 133, (cis)-1-Acetyl-2-methyl-6-[4-(1-pipendinylmethyl)phenyl]-N-2-pyridinyl-1,2,3,4-tetrahydro-4-quinolinamine formate salt], the IC50 in experiment [1] is not above 10 µM.

The values are drawn from US8580957B2, “Thetrahydroquinolines derivatives as bromodomain inhibitors” (GlaxoSmithKline LLC, priority 2009, dated 2013).
